The text below walks through data of PubChem BioAssay (NCI).

Among the test systems are HL-60(TB) leukemia; A549 NSCLC; SR leukemia; DU-145 prostate; SF-268 CNS; HT29 colon; NCI/ADR-RES ovarian; COLO 205 colon; MDA-MB-231 breast; BT-549 breast.
Holding throughout (experiment): NCI tumour cell line growth inhibition, 48 h

Structures are written as SMILES.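 Each compound was tested at five concentrations against cells in 96-well plates for 48 hours. GI50 = concentration required for 50% inhibition of growth. TGI is the concentration that stops growth completely.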

For `Fc1ccc(/C=N/n2c(-c3ccc(F)c(Cl)c3)nn(CNc3ccccc3C(F)(F)F)c2=S)cc1`, the GI50 is 39.4 µM in the assay on HL-60(TB) leukemia; 52.8 µM with A549 NSCLC; 31.2 µM in the assay with SR leukemia; greater than 100 µM in the assay on DU-145 prostate; greater than 100 µM in the assay with SF-268 CNS; 94.4 µM in the assay on HT29 colon. Moreover, the GI50 is 41.2 µM in the assay with NCI/ADR-RES ovarian, 47.7 µM in the assay on COLO 205 colon and 67 µM in the assay with MDA-MB-231 breast. The TGI in the assay on HL-60(TB) leukemia, in the assay on A549 NSCLC, in the assay on SR leukemia, in the assay on DU-145 prostate, in the assay with SF-268 CNS and with HT29 colon was greater than 100 µM throughout. The TGI with NCI/ADR-RES ovarian, in the assay with COLO 205 colon and in the assay with MDA-MB-231 breast was greater than 100 µM each time.
For `Cc1ccc2c(C3Cc4ccccc4N3C(=O)/C=C\C(=O)O)c(C)[nH]c2c1` (stereo not drawn), the TGI in the assay with HL-60(TB) leukemia is 43.8 µM; with A549 NSCLC, greater than 100 µM; in the assay with SR leukemia it was 72.9 µM; in the assay on HT29 colon, greater than 100 µM; in the assay on COLO 205 colon, 58.5 µM.
Regarding `COc1cc(C(=O)C/C(CCC(=O)Nc2ccccc2[N+](=O)[O-])=N\NC(N)=O)ccc1O`, the TGI with HL-60(TB) leukemia, in the assay on A549 NSCLC, in the assay with SR leukemia, with SF-268 CNS, with HT29 colon and in the assay with COLO 205 colon was greater than 100 µM in each case.
Turning to `N#CC(=C1C=CC(=NO)C=C1)c1ccc(Cl)cc1`, the TGI in the assay on HL-60(TB) leukemia stood at 9.6 µM; in the assay with A549 NSCLC, 49.7 µM; in the assay on SR leukemia, 43.5 µM; in the assay with SF-268 CNS it was 48 µM; in the assay on HT29 colon it was 22.9 µM; with COLO 205 colon, 34.5 µM.
For `CCOC(=O)C1C(=S)NC(=O)C1C#N` (stereo not drawn), the TGI in the assay with HL-60(TB) leukemia, with A549 NSCLC, with SF-268 CNS, with HT29 colon and in the assay with COLO 205 colon was greater than 100 µM in each case.
As to `Cc1c(/C=N/N=C/c2[nH]c(C(=O)OC(C)(C)C)c(C)c2C)[nH]c(C(=O)OC(C)(C)C)c1C`, the TGI with HL-60(TB) leukemia, in the assay with A549 NSCLC, with SR leukemia, with SF-268 CNS, with HT29 colon and with COLO 205 colon was greater than 100 µM throughout.
On to `O=C1OC(Cc2ccccc2)(N2CCCC2=O)C1c1ccccc1` (stereo not drawn), for which the TGI in the assay on HL-60(TB) leukemia, with A549 NSCLC, with SR leukemia, in the assay with SF-268 CNS, in the assay on HT29 colon and in the assay on COLO 205 colon was greater than 100 µM each time.
Take `COC(=O)C1(C)CCc2c(OC)ccc(OC)c2C1=O` (stereo not drawn): the TGI in the assay with HL-60(TB) leukemia, in the assay with A549 NSCLC, in the assay on SR leukemia, in the assay on SF-268 CNS and in the assay with COLO 205 colon was greater than 100 µM throughout.
Consider `Cc1cccc(C)c1NC(=O)/C(=N/NC(N)=S)C(C)C(=O)c1ccc(Cl)cc1` (stereo not drawn), for which the TGI with HL-60(TB) leukemia, in the assay with A549 NSCLC, with SR leukemia, in the assay on SF-268 CNS, in the assay on HT29 colon and in the assay with COLO 205 colon was greater than 100 µM in each case.
As for `CC(=O)Nc1ccc(SC#N)c2c(NC(C)=O)cccc12`, the TGI was 71.5 µM in the assay with HL-60(TB) leukemia; greater than 100 µM in the assay on A549 NSCLC; greater than 100 µM in the assay with SR leukemia; greater than 100 µM in the assay on SF-268 CNS; greater than 100 µM with HT29 colon; greater than 100 µM in the assay with COLO 205 colon.
As for `COC(=O)C1CC2CC(=NNC(N)=O)CC2C1` (stereo not drawn), the TGI in the assay with HL-60(TB) leukemia, with A549 NSCLC, with SF-268 CNS, in the assay with HT29 colon and with COLO 205 colon was greater than 100 µM throughout.
For `O=C(NC1CCCCC1)NS(=O)(=O)c1ccc2c(c1)CCC2`, the TGI with HL-60(TB) leukemia, with A549 NSCLC, in the assay on SR leukemia, in the assay with SF-268 CNS and in the assay on COLO 205 colon was greater than 100 µM each time.
`CCN(CC)CC1c2ccccc2C(CNc2ccccc2)N1C` (stereo not drawn): the TGI in the assay with HL-60(TB) leukemia, with A549 NSCLC, with SF-268 CNS and in the assay on COLO 205 colon was greater than 100 µM each time.
For `O=C1NC(=O)C2C(=O)NC(=O)C1C2c1c(Cl)cccc1Cl` (stereo not drawn), the TGI was greater than 63.4 µM in the assay on HL-60(TB) leukemia; greater than 100 µM in the assay on A549 NSCLC; greater than 100 µM with SR leukemia; greater than 96.7 µM in the assay on SF-268 CNS; greater than 100 µM in the assay on HT29 colon; greater than 56.3 µM in the assay with COLO 205 colon.
Consider `CCOC(=O)C1=C(C)N(c2ccc(Cl)cc2)[C@]2(C#N)C(O)=C(Cl)C(Cl)=C(O)[C@]12C#N`, for which the GI50 is 88.2 µM in the assay on HL-60(TB) leukemia; greater than 100 µM with A549 NSCLC; 20.6 µM in the assay on SR leukemia; 0.339 µM in the assay with DU-145 prostate; greater than 100 µM in the assay on SF-268 CNS; 51.9 µM in the assay on HT29 colon. Moreover, the GI50 with COLO 205 colon is 59.6 µM; with MDA-MB-231 breast, 38.8 µM; in the assay on BT-549 breast, 1.57 µM. The TGI with HL-60(TB) leukemia is greater than 100 µM; with A549 NSCLC, greater than 100 µM; with SR leukemia, greater than 100 µM; in the assay with DU-145 prostate it was 24.5 µM; in the assay on SF-268 CNS it was greater than 100 µM; in the assay with HT29 colon, greater than 100 µM. Further, the TGI is greater than 100 µM with COLO 205 colon, greater than 100 µM in the assay on MDA-MB-231 breast and 33.4 µM with BT-549 breast.
For `COc1ccc(C=O)c([N+](=O)[O-])c1`, the TGI with HL-60(TB) leukemia was 23.6 µM; in the assay on A549 NSCLC, greater than 100 µM; with SF-268 CNS it was greater than 100 µM; in the assay with HT29 colon, 63.8 µM; in the assay on COLO 205 colon it was greater than 100 µM.
In the case of `CCC(=O)C12OC3OC(C)(C)OC3C1OC(C)(C)O2` (stereo not drawn), the TGI in the assay with HL-60(TB) leukemia, with A549 NSCLC, with SR leukemia, in the assay with SF-268 CNS and with HT29 colon was greater than 100 µM each time.
In the case of `CC#CCC1CCC(OCC)=CC1=O` (stereo not drawn), the TGI in the assay with HL-60(TB) leukemia, in the assay with A549 NSCLC, in the assay with SR leukemia, with SF-268 CNS, in the assay with HT29 colon and with COLO 205 colon was greater than 100 µM each time.
